Measurements as given in US6365634B1, “Naturally occurring compounds and their derivatives as cyclooxygenase 2 and/or 5-lipoxygenase inhibitors” (C-P Technology Limited Partnership, priority 1997, dated 2002).

Key:
human recombinant COX II = molecular target: T1, human recombinant COX II (Homo sapiens, UniProt P35354); test: COX II biochemical assay (3H-arachidonic acid conversion, TLC quantitation)
T1 construct: purchased Oxford Chemical
T1 sequence (P35354 18-604): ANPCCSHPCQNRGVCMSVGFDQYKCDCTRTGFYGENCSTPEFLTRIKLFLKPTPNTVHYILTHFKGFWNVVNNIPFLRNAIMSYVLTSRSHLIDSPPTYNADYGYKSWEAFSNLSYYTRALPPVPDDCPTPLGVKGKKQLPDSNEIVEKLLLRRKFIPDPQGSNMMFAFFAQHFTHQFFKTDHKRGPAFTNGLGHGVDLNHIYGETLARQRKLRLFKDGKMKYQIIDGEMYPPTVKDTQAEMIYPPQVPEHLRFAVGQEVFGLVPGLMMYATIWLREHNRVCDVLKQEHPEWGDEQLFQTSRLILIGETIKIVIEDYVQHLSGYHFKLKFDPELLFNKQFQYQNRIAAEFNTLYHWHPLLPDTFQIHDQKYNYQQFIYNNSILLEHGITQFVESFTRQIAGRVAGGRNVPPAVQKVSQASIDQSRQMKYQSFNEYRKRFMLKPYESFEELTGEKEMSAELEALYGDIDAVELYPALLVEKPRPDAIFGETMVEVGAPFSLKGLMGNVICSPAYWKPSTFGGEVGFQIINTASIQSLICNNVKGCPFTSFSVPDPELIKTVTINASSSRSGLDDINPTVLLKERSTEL
Procedure: Two units of recombinant COX II enzyme (corresponding to 0.8 ug total protein) was added followed by 5 uL aliquots of the peat bog extracts yielding a final concentration of the peat extracts of 25 ug/ml. All samples were run in duplicate. […] Reactions were initiated by the addition of ^3H-arachidonic acid (DuPont-NEN) at a final concentration of 50 uM. The reactions were maintained for 5 minutes at 37° C. and stopped by the addition of ice-cold methanol/acetic acid (10:1 v/v).
The assessment of cyclooxygenase activity (both COX I and II) in the presence and absence of the peat bog extracts was based on the quantitation of tlhe radiolabeled arachidonic acid metabolites prostaglandin A2 (PGA2), PGE2, and PGF2-alpha. To do this, a 50 uL sample of each reaction solution was separated via TLC on LK6DF silica plates co-spotted with arachidonic acid, PGA2, and PGF2-alpha and developed in hexane/isopropyl alcohol/ acetic acid (85:15:1 v/v). The bands were visualized by UV-vis or I2 staining and scraped into scintillation vials for quantitation. […] The total enzyme activity (At), the corrected enzyme activity in the presence of an inhibitor (Ai), and % inhibition were calculated by the following equations:
3) Percent Inhibition=100 (1−Ai/ At)

[1] = molecular target: T2, rabbit reticulocyte 15-LO (Oryctolagus cuniculus, UniProt P12530); test: 15-LO biochemical assay (15-HETE formation, TLC quantitation); conditions: for Percent Inhibition of 15-LO: negative = increased activity
T2 construct: 24.5 units of a rabbit reticulocyte 15-LO preparation; tissue Oxford Biochemicals; host or cells: rabbit reticulocytes
T2 sequence (P12530 1-663): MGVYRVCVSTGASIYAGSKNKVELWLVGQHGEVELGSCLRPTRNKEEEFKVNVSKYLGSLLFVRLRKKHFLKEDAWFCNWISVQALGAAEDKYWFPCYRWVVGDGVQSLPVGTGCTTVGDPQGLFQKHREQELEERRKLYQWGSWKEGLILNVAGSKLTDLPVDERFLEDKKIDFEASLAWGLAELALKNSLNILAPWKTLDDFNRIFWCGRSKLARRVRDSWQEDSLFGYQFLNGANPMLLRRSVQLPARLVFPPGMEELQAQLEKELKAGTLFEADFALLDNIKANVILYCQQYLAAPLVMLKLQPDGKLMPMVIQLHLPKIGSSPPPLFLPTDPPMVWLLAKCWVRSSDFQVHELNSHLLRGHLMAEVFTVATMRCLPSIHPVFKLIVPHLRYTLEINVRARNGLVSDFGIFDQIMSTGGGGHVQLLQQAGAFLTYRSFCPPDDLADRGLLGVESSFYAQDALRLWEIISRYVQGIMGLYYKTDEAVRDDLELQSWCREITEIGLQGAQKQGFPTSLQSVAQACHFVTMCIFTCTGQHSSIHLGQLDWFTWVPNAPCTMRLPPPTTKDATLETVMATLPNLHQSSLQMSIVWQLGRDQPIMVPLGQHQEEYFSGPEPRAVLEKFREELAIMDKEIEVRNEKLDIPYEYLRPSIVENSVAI
Procedure: The inhibitory activity of dehydroabietic acid methyl ester was assessed by performing biochemical assays that utilized 1) human recombinant COX II, 2) ovine COX I, and 3) rabbit reticulocyte 15-LO. In all biochemical assays dehydroabietic acid methyl ester and inhibitory control compounds were used at a final concentration of […]. The COX I and II biochemical assays have been previously described in this document (see COX I and II Assays Used to Test X-8 Fractions and Purified Compounds, Example 3). The 15-LO assay was done using a modified version of a previously reported method (Corey, E. J., Shih, C., and Cashman, J. R. (1983) Proc. Natl. Acad. Sci. v80, p3,581; Sigal, E., Grunberger, D., Cashman, J. R., Craik, C. S., Caughey, G. H., and Nadel, J. A. (1988) Biochem. Biophys. Res Comm. v150(1), p376). Briefly, 24.5 units of a rabbit reticulocyte 15-LO preparation (corresponding to 7 ug total protein)(Oxford Biochemicals) was placed in potassium phosphate buffer (10 mM, pH 6.0). Dehydroabietic acid methyl ester was added to give a final concentration of 250 uM. The reaction was initiated by the addition of ^3H-AA (50 uM final concentration) and maintained at 37° C., for 5 min. The reaction was stopped by the addition of ice-cold methanol containing NaCNBH3 (to reduce peroxides). A portion of each reaction solution was then separated via TLC (250 μm PK6F 60 Å silica gel preparative TLC plate, Whatman), co-spotted with AA and 15-HETE (a metabolic product of 15-LO) and developed in hexane/ether/acetic acid (50:50:1) to separate 15-HETE from AA (Rf=0.29 and 0.5, respectively). Bands on the TLC plates were then visualized by I2 and scraped for quantitation. As with the COX I and II assays, percent inhibition was calculated based on a comparison between incubations performed in the presence and absence of dehydroabietic acid methyl ester (see “Fractionation and Bioassay Analysis of Fractions Derived from Extract-8” above).

human keratinocytes = test: Microscopic examination of treated keratinocyte cultures; assay type: cell-based

| SMILES | inhibited COX II preferentially over COX I by (human recombinant COX II; 250 uM, difference of percent inhibition COX II versus COX I) | Percent Inhibition of COX II (human recombinant COX II; final concentration of 250 uM) | increase of the enzymatic activity of 15-LO ([1]; 250 uM) | Percent Inhibition of 15-LO ([1]; final concentration of 250 uM) | toxicity when treated cultures were examined microscopically (human keratinocytes) | Percent Inhibition of COX II (human recombinant COX II; pure 4-cumylphenol, assay as Example 2B, concentration not given) | Percent Inhibition of 15-LO ([1]; pure 4-cumylphenol, concentration not given) |
| --- | --- | --- | --- | --- | --- | --- | --- |
| COC(=O)[C@]1(C)CCC[C@]2(C)c3ccc(C(C)C)cc3CC[C@@H]12 [Dehydroabietic acid methyl ester, dehydroabietic acid methyl ester] | over 30% | 31.5% | over 93% | −93.6% | lack of toxicity |  |  |
| CC(C)(c1ccccc1)c1ccc(O)cc1 [4-Cumylphenol, 4-cumylphenol] |  |  |  |  | lack of toxicity | 22.4% | −40.0% |
